In patent US7264921B2, “No synthase assay particles and method” (GE Healthcare UK Limited, priority 2001, dated 2007):
Counter-ions that a name gives are not always drawn.

Columns and labels:
iNOS [1] = target: T1, iNOS (Mus musculus, UniProt P29477); assay: iNOS SPA enzyme assay, effect of solvents; format: biochemical, murine; set-up: purchased Cayman Chemical Company 60864; settings: for Time (mins) cpm, 0: 0 min; for Time (mins) cpm, 5: 5 min; for Time (mins) cpm, 10: 10 min; for Time (mins) cpm, 20: 20 min; for % change in ratio: versus water
Experimental: The effect of using different solvents to dissolve test inhibitor compounds was tested, using the assay conditions as described in Example 4 above. […] Appropriate ‘experimental controls’ should therefore be used in all experiments.

iNOS [2] = target: T1, iNOS; assay: biochemical
Experimental: Reaction conditions and data measurement were as described in Example 3 above, using 10 μl of iNOS (Cayman Chemical Company, Catalogue Number 60864) enzyme equivalent to 0.038 units/well.
The assay conditions were as described in Example 4 above employing a range of inhibitor concentrations.

iNOS [3] = target: T1, iNOS; assay: iNOS enzyme assay, competition experiment I (LEADseeker beads, 14C arginine); format: biochemical, murine; set-up: purchased Cayman Chemical Company 60864; settings: from dose response curve FIG. 8; 1 hour room temperature; read-out: IC50 (50% inhibition of the enzyme)
Experimental: The preferential capture of arginine compared to citrulline can be utilised in a signal decrease assay. The assay is performed in a 3074 Costar 384 well plate Enzyme (iNOS murine macrophage, recombinant. Cayman catalogue no. 60864, 112 units/ml) is diluted 10 times in assay buffer (1.2 mM NADPH, 3.6 mM DTT, 4.8 uM FAD, 4.8 uM FMN, 4.8 uM biopterin in 50 mM TRIS pH 7.5. Diluted enzyme (10 μl) is incubated with 1.5 μl inhibitor/agonist dissolved in 100% DMSO along with 10 μl ^14C arginine tracer (APBiotech, CFB63, 300 mCi/mMol stock solution diluted in assay buffer to 100,000-150,000 cpm in 10 μl) for 1 hour at room temperature, protected from light. 10 μl LEADseeker beads suspended in a “stop” solution (360 μM aminoguanidine, 20 mM EDTA, pH 8) to 100 mg/ml (i.e 10 μl=1 mg/well) are added and the mixture incubated at room temperature for at least 2 hours. Control reactions were carried out by replacing the inhibitor with 1.5 μl water. The results are read by counting in LEADseeker™ (binning at 2×2, Q coincidence and imaged for 5 mins).
The baseline was determined using 1.5 μl 1 mM aminoguanidine (final concentration 70 μM) and maximum response using 1.5 μl 30 mM aminoguanidine (final concentration).

% change in ratio (iNOS [1]; 1% solvent) [%] | % change in ratio (iNOS [1]; 5% solvent) [%] | IC50 (iNOS [2]) [µM] | IC50 (iNOS [3]) [µM] | Structure (SMILES) | Ratio Time 0/20 mins (iNOS [1]; 1% solvent) | Time (mins) cpm, 0 (iNOS [1]; 1% solvent) [cpm] | Time (mins) cpm, 5 (iNOS [1]; 1% solvent) [cpm] | Time (mins) cpm, 10 (iNOS [1]; 1% solvent) [cpm] | Time (mins) cpm, 20 (iNOS [1]; 1% solvent) [cpm] | Ratio Time 0/20 mins (iNOS [1]; 5% solvent) | Time (mins) cpm, 0 (iNOS [1]; 5% solvent) [cpm] | Time (mins) cpm, 5 (iNOS [1]; 5% solvent) [cpm] | Time (mins) cpm, 10 (iNOS [1]; 5% solvent) [cpm] | Time (mins) cpm, 20 (iNOS [1]; 5% solvent) [cpm] | Ratio Time 0/20 mins (iNOS [1]; 10% solvent) | Time (mins) cpm, 0 (iNOS [1]; 10% solvent) [cpm] | Time (mins) cpm, 5 (iNOS [1]; 10% solvent) [cpm] | Time (mins) cpm, 10 (iNOS [1]; 10% solvent) [cpm] | Time (mins) cpm, 20 (iNOS [1]; 10% solvent) [cpm] | % change in ratio (iNOS [1]; 10% solvent) [%]
10 | 28 | – | – | C[S+](C)[O-] [DMSO] | 6.39 | 10324 | 7128 | 4330 | 1615 | 5.12 | 8530 | 4166 | 4453 | 1665 | 3.10 | 6630 | 3884 | 3666 | 2138 | 56
– | – | 0.032 | – | CCSC(=N)N [SEITU, 2-ethyl-2-thiopseudourea hydrobromide] | – | – | – | – | – | – | – | – | – | – | – | – | – | – | – | –
– | – | – | ~500 | N=C(N)NN [aminoguanidine] | – | – | – | – | – | – | – | – | – | – | – | – | – | – | – | –
8 | 41 | – | – | CCO [ethanol] | 6.57 | 13409 | 9004 | 5580 | 2040 | 4.19 | 13248 | 7465 | 6596 | 3161 | 3.23 | 12008 | 6316 | 5987 | 3715 | 54
– | – | – | – | CO [methanol] | 7.56 | 14914 | 8639 | 4989 | 1973 | 7.13 | 15317 | 7939 | 5466 | 2147 | 6.32 | 12488 | 6631 | 4698 | 1975 | 10

Structure (SMILES) | % change in ratio (iNOS [1]; 1% solvent) [%] | % change in ratio (iNOS [1]; 5% solvent) [%] | IC50 (iNOS [2]) [µM] | IC50 (iNOS [3]) [µM] | Ratio Time 0/20 mins (iNOS [1]; 1% solvent) | Time (mins) cpm, 0 (iNOS [1]; 1% solvent) [cpm] | Time (mins) cpm, 5 (iNOS [1]; 1% solvent) [cpm] | Time (mins) cpm, 10 (iNOS [1]; 1% solvent) [cpm] | Time (mins) cpm, 20 (iNOS [1]; 1% solvent) [cpm] | Ratio Time 0/20 mins (iNOS [1]; 5% solvent) | Time (mins) cpm, 0 (iNOS [1]; 5% solvent) [cpm] | Time (mins) cpm, 5 (iNOS [1]; 5% solvent) [cpm] | Time (mins) cpm, 10 (iNOS [1]; 5% solvent) [cpm] | Time (mins) cpm, 20 (iNOS [1]; 5% solvent) [cpm] | Ratio Time 0/20 mins (iNOS [1]; 10% solvent) | Time (mins) cpm, 0 (iNOS [1]; 10% solvent) [cpm] | Time (mins) cpm, 5 (iNOS [1]; 10% solvent) [cpm] | Time (mins) cpm, 10 (iNOS [1]; 10% solvent) [cpm] | Time (mins) cpm, 20 (iNOS [1]; 10% solvent) [cpm] | % change in ratio (iNOS [1]; 10% solvent) [%]
CC(C)=O [acetone] | 8 | 33 | – | – | 6.54 | 12884 | 8509 | 5169 | 1971 | 4.78 | 12431 | 8409 | 6708 | 2601 | 3.19 | 10201 | 6255 | 6464 | 3193 | 55
